Data published in patent US6399380B1, “Native-state histoculturing skin extracellular support” (Anti-Cancer, Inc., priority 1991, dated 2002).

Legend:
histocultured mouse skin = system: histocultured mouse skin
Experimental: Samples of skin having an external surface area of about 10 mm^2 and a thickness of about one to two mm were excised from an athymic nude mouse and placed on a GELFOAM™ matrix immersed in Eagle's MEM containing about 0.2 mg/ml of gentamycin and about 10% (v/v) fetal bovine serum. Prior to use the matrix was soaked in the medium for four hours at 37° C. to equilibrate the matrix in the medium.
The skin samples were maintained on the matrix in the medium at a temperature of about 37° C. in a gassed incubator under a mixture of 95% air and 5% CO2. Viability was assessed as the uptakes of an indicator specific for viable cells (BCECF-AM) and an indicator specific for dead cells (propidium iodide, PI), or as the uptake of [^3H]-thymidine.
The fluorescent dye indicators BCECF-AM and PI (Molecular Probes, Eugene, Oreg.) were added directly to the medium at a final concentration of 5 micromolar. Incorporation of the dyes was microscopically evaluated about 30 min following addition of the dyes to the medium by optical scanning using an MRC-600 Confocal Imaging System (Bio-Rad, Richmond, Calif.) mounted on a Nikon Epithet equipped with a 10× Plane objective. Samples were observed using an optical section of about 4 microns.
Skin samples from athymic nude mice were cultured according to the method of Example 1. Viability was assessed before and after the addition of putative toxins using BCECF-AM and [^3H]-thymidine as indicators specific for viable cells and PI as an indicator specific for dead cells. The uptake of these indicators was determined according to the methods of Example 1.
An initial assessment of viability was made 2 days after initiation of the skin culture using BCECF-AM and PI. Immediately following this initial assessment, various concentrations of the toxins ethanol, doxorubicin or sodium hypochlorite were contacted with the skin samples. The final concentrations of the toxins varied from about 0.5% to about 70% (v/v) for ethanol, from about 29 to about 725 mgs/ml for doxorubicin and from about 0.6% to about 60.0% (v/v) for sodium hypochlorite.
The skin samples were contacted with ethanol, doxorubicin and sodium hypochlorite for about 5 min., for about 24 hours and for about 2 hours respectively. Following these contact times, the toxin-containing medium was replaced with fresh, non-toxin-containing medium and the skin samples reassessed for viability using BCECF-AM and PI Viability was assessed in the same region of the skin sample before and after contact with the toxin.
In this study, toxicity was expressed as a percent of killed cells. The fraction of killed cells (PI-positive cells) with respect to total cells (PI-positive (red) plus BCECF-AM-positive (green) cells) in treated cultures is measured with confocal fluorescence scanning microscopy and is compared to untreated controls to determine cytotoxicity. The percent of killed cells is expressed as the number of red cells after treatment minus the number of red cells before treatment, divided by the total number of cells (green cells after treatment plus red cells after treatment).
The effects of doxorubicin and sodium hypochlorite on skin toxicity were determined in an identical manner to that described above for ethanol.

[1] = system: dermal, epidermal and follicle cells of histocultured mouse skin; experiment: Skin toxicity assay: [3H]-thymidine uptake (percent cell proliferation), autoradiography; format: cell-based; settings: FIG. 6
Experimental: [^3H]-Thymidine was added directly to the medium at a final concentration of 4 μCI/ml. Skin samples were maintained in the thymidine-containing medium for 3 days. After the 3 days, the skin cultures were washed with phosphate-buffered saline, pH 7.0, placed in histology capsules and fixed in 10% (v/v) formalin. The fixed skin cultures were then dehydrated, embedded in paraffin, sectioned and placed on slides by standard methods well known to those of skill in the histology art. The slides were deparaffinized, coated with Kodak NTB-2 emulsion, exposed for 5 days and developed. […]
In addition, skin samples contacted with doxorubicin were assessed for viability using the uptake of [^3H]-thymidine measured after 24 hr of toxin contact.
In this study, toxicity was expressed as percent cell proliferation. Percent cell proliferation was calculated as the ratio of, (1) percentage of cells labeled with [^3H]-thymidine to total cells in doxorubicin treated samples compared to (2) the percentage of [^3H]-thymidine labeled cells to total cells in control, untreated skin samples.

dorsal skin of mice = settings: mouse, in vivo
Experimental: The in vivo assessment of toxicity was determined using a standard skin irritation test as set forth below.
Small pieces of gauze paper (about 1.5 cm^2 size), which have been soaked in different concentrations of sodium hypochlorite, were tightly put on 3 different sites on the dorsal surface of the mice. Skin sites were scored on a 1 to 4 scale for […] and edema ½ hour and 1 hour after removal of the sodium hypochlorite. The primary irritation index (PII) for each concentration of sodium hypochlorite was derived from the following formula: […]

With COc1cccc2c1C(=O)c1c(O)c3c(c(O)c1C2=O)C[C@@](O)(C(=O)CO)C[C@@H]3O[C@H]1C[C@H](N)[C@H](O)[C@H](C)O1 [doxorubicin] the “toxicity (percent of killed cells) as a function of concentration” value (histocultured mouse skin; doxorubicin about 29 to about 725 mgs/ml, 24 hours, FIG. 5) was “relatively proportional to the concentration of doxorubicin”, the “percent cell proliferation ([3H]-thymidine labeled cells relative to control)” value ([1]; 24 hour exposure to doxorubicin) was “dose-dependent decrease in cell proliferation” and the “cell type in which toxicity was most pronounced” value ([1]; 24 hour exposure, dermal, epidermal and follicle cells compared) was “most pronounced in hair follicle cells”.
OCl [sodium hypochlorite] was tested, and the “threshold of toxicity (percent of killed cells)” value (histocultured mouse skin; athymic nude, mouse) was “about 0.6%” and the “threshold of toxicity (primary irritation index)” value (dorsal skin of mice) was “about 0.6%”.
CCO [ethanol] was tested, and the “viability of skin sample after vs before treatment (live/dead staining)” value (histocultured mouse skin; 0.5% (v/v) or 5.0% ethanol, about 5 min, skin histocultured 2 days, FIG. 3) was “a large number of cells died”, the “relative toxicity (loss in viability)” value (histocultured mouse skin; 5.0% vs 0.5% ethanol, about 5 min, FIG. 3) was “more toxic (a greater loss in viability) than was 0.5% ethanol” and the loss of viability (histocultured mouse skin; 30%, 50% and 70% ethanol, data not shown) was “increasing losses of viability above the extent of losses observed using 5% ethanol”. The “percent of killed cells (toxicity) as a function of concentration” value (histocultured mouse skin; ethanol about 0.5% to about 70% (v/v), 5 minutes, skin histocultured two days, FIG. 4) was “increases as the concentration of ethanol increases”.
